From patent publication US20240246940A1, “HETEROARYL DERIVATIVE COMPOUND AND USE THEREOF” (VORONOI INC., priority 2021, published 2024) come the findings set out here.

In experiment [1] the test system is HaCaT cells (EGFR expressing cell line). The experiment can be described thus: HaCaT cell proliferation inhibitory activity (CellTiter-Glo, 72 hours). As to conditions: Homo sapiens. The class given is cell-based. The method in brief:
(§1)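 GI50 derived from % growth versus control from CellTiter-Glo luminescence, each test run three times. SK-BR-3 and BT-474 are seeded 48 h ahead at 5000/well and dosed at 0.2 nM–10 μM. N-87 (5000/well) gets […]–5 μM and HaCaT (3000/well) gets 0.8 nM–45 μM, both seeded 24 h ahead.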

Experiment [2] deals with BT-474 cells (HER2 overexpressing cell line). The experiment can be described thus: BT-474 cell proliferation inhibitory activity (CellTiter-Glo, 120 hours). The experiment is classed as cell-based. As to conditions: Homo sapiens. A digest of the protocol:
as §1

On to `C=C(F)C(=O)N1CCC(Oc2cc3c(Nc4cc(-c5ccco5)ccc4OC)ncnc3cc2OC)CC1` [Example 184, 2-fluoro-1-(4-((4-((5-(furan-2-yl)-2-methoxyphenyl)amino)-7-methoxy-quinazolin-6-yl)oxy)piperidin-1-yl)prop-2-en-1-one], for which the GI50 in experiment [1] was 0.15 to 1 µM; in experiment [2], > 1 µM.

Consider `COc1cc2ncnc(Nc3cc(-c4ccco4)ccc3OC)c2cc1NC(=O)/C=C/CN1CCOCC1` [Example 315, (E)-N-(4-((5-(furan-2-yl)-2-methoxyphenyl)amino)-7-methoxyquinazolin-6-yl)-4-morpholinobut-2-enamide], for which the GI50 in experiment [1] and in experiment [2] was ≤ 0.15 µM each time.

As to `C=CC(=O)N1CCC(Oc2cc3c(Nc4cc(-c5c(F)c(F)c(F)c(F)c5F)ccc4OC)ncnc3cc2OC)CC1` [Example 198], the concentration for 50% growth inhibition (GI50) in experiment [1] was > 1 µM; in experiment [2], 0.15 to 1 µM.

For the compound `C=CC(=O)N1CCC(Oc2cc3c(Nc4cc(-c5ccc(F)c(F)c5F)ccc4OC)ncnc3cc2OC)CC1` [Example 203, 1-(4-((7-methoxy-4-((2′,3′,4′-trifluoro-4-methoxy-[1,1′-biphenyl]-3-yl)amino)quinazolin-6-yl)oxy)piperidin-1-yl)prop-2-en-1-one], the 50% growth inhibitory concentration (GI50) in experiment [1] was 0.15 to 1 µM; in experiment [2], ≤ 0.15 µM.

Consider `COc1ccc(-c2ccco2)cc1Nc1ncnc2ccc(NC(=O)/C=C/CN(C)C)c(Cl)c12` [Example 321, (E)-N-(5-chloro-4-((5-(furan-2-yl)-2-methoxyphenyl)amino)quinazolin-6-yl)-4-(dimethylamino)but-2-enamide], for which the GI50 in experiment [1] was 0.15 to 1 µM; in experiment [2], > 1 µM.

With `COc1ccc(-c2ccco2)cc1Nc1ncnc2cc(OC)c(OC3CCN(C(=O)C(F)Cl)CC3)cc12` (stereo not shown) [Example 188, 2-chloro-2-fluoro-1-(4-((4-((5-(furan-2-yl)-2-methoxyphenyl)amino)-7-methoxy-quinazolin-6-yl)oxy)piperidin-1-yl)ethan-1-one], the figures for the 50% growth inhibitory concentration (GI50) in experiment [1] and in experiment [2] were ≤ 0.15 µM and 0.15 to 1 µM, respectively.

Consider `C=CC(=O)N1[C@@H]2CC[C@H]1C[C@H](Oc1cc3c(Nc4cc(-c5ccco5)ccc4OC)ncnc3cc1OC)C2` [Example 172, 1-((1R,3s,5S)-3-((4-((5-(furan-2-yl)-2-methoxyphenyl)amino)-7-methoxy-quinazolin-6-yl)oxy)-8-azabicyclo [3.2.1]octan-8-yl)prop-2-en-1-one], for which the concentration for 50% growth inhibition (GI50) in experiment [1] and in experiment [2] was ≤ 0.15 µM in each case.

In the case of `COc1cc2ncnc(Nc3cc(-c4ccco4)ccc3OC)c2cc1NC(=O)/C(F)=C\[C@@H]1CCCN1C` [Example 309, (S,E)-2-fluoro-N-(4-((5-(furan-2-yl)-2-methoxyphenyl)amino)-7-methoxyquinazolin-6-yl)-3-(1-methylpyrrolidin-2-yl)acrylamide], the GI50 in experiment [1] and in experiment [2] was ≤ 0.15 µM each time.
